The text below walks through data of patent US8044094B2, “Agents for preventing and treating disorders connected to impaired neurotransmission” (DSM IP Assets B.V., priority 2004, dated 2011).

For orientation: Ki means the dissociation constant of the complex between target and ligand, obtained from inhibition or displacement. For orientation: inhibition means the percentage by which the read-out fell short of the control. Read a high inhibition as a strong effect.

Assay [1] addresses T1, human serotonin re-uptake transporter (hSERT) (Homo sapiens, UniProt P31645). Kind of assay: Serotonin uptake inhibition in HEK-293 cells stably expressing hSERT. It counts as cell-based. Particulars: transfected HEK-293 cells; Ki from IC50 by Cheng-Prusoff; 20 nM (3H) serotonin; read-out: Inhibition constant Ki for tritiated serotonin uptake. The method, then:
HEK-293 cells stably expressing the human serotonin re-uptake transporter (hSERT) were obtained from R. Blakely, Vanderbilt University, USA. The cells were routinely grown in Dulbeco's Modified Eagles Medium, purchased from Bioconcept, Allschwil, Switzerland containing 10% fetal calf serum, penicillin, streptomycin, L-glutamine and the antibiotic G418 and passaged by trypsinisation. 1 day prior to the assay cells were seeded in the above mentioned medium. Immediately prior to the assay the medium was replaced by Krebs Ringers bicarbonate buffer, purchased from Sigma Chemicals Ltd., supplemented with 35 μM pargyline, 2.2 mM CaCl2, 1 mM ascorbic acid and 5 mM N-2-hydroxyethylpiperazine-N′-2-ethanesulfonic acid (buffer called “Hepes”). Serotonin uptake into the cells was determined by addition of radio-labeled (3H) serotonin (Amersham Biosciences GE Healthcare, Slough, UK) to a concentration of 20 nM, and incubation for 30 minutes at room temperature. Following removal of unincorporated label by gentle washing three times with the above buffer, incorporated serotonin was quantified by liquid scintillation counting.
(§1) The effect of the coumarin ethers of formula I on the serotonin uptake and the citalopram binding was determined by its inclusion in the assay at a range of concentrations between 0.03 and 100 μM for 10 minutes prior to and during the addition of (3H) serotonin/citalopram. Serotonin uptake via the transporter and citalopram binding were both inhibited by the coumarin ethers of formula I in a dose dependent manner. The calculated inhibition constants Ki, derived from the measured IC50 using the Cheng—Prusoff equation (Y. C. Cheng, W. H. Prusoff, Biochem. Pharmacol. 1973, 22, p. 3099-3108), for inhibition of serotonin uptake and citalopram binding by coumarin ethers of the formula I are shown in Table 1.

The target in a further assay is T2, MAO-B (Homo sapiens, UniProt P27338).
T2 construct: purchased Sigma M7441
T2 sequence (P27338 1-520): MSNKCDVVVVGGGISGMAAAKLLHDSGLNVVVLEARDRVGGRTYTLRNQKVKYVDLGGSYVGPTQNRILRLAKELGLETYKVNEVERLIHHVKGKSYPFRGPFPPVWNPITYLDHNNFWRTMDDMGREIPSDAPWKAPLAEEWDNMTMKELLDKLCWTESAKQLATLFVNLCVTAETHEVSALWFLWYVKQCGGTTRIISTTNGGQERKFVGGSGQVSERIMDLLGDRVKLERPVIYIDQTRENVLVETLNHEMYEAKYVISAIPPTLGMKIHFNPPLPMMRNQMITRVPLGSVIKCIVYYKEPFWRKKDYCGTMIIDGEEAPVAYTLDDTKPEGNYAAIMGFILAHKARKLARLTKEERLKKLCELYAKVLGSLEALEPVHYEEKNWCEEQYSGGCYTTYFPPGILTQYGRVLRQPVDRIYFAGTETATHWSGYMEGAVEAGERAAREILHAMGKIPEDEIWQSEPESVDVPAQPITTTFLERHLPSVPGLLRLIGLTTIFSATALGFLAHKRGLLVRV
Kind of assay: MAO-B inhibition, Amplex Red Monoamine Oxidase Assay Kit, colorimetric. It counts as biochemical. The protocol: From a stock solution of 0.0405 g of racemic obliquin (92.5%; equal to 37.5 mg of pure compound) in 750 μl of dimethylsulfoxide (DMSO), working solutions were prepared with a concentration of obliquin of 4. 10^−4M in reaction buffer (0.05 M sodium phosphate, pH 7.4, 0.2% DMSO). The final concentrations of obliquin in the test system were 10^−4 M, 10^−5 M, 10^−6 M, 10^−7 M.
For determining the inhibition of monoaminoxidases' activity, the Amplex Red Monoamine Oxidase Assay Kit (Molecular Probes Nr._A-12214, Colorimetric version) was conducted according to manufacturers instructions.
As substrates for MAO-A enzyme (Sigma Nr. M7316) p-tyramine and as substrate for MAO-B enzyme (Sigma Nr. M7441) benzylamine were used. The concentration of MAO-A enzyme was 8 Units/ml, and that of MAO-B 4 Units/ml in the working solution.
MAO-A and MAO-B Assay, Colorimetric Version:
For the assay, 50 μl of each working solution (see above) were used. As control solution, the obliquin containing working solution was replaced by 50 μl of the reaction buffer.
50 μl of diluted MAO-A with a final concentration of 2 Units/ml and 50 μl of diluted MAO-B with a final concentration of 1 Unit/ml, respectively, were added.
100 μl of the Amplex solution containing horseradish peroxidase (2 U/ml) and the substrate tyramine (for MAO-A) or the substrate benzylamine (for MAO-B) were added.
To allow a subtraction of the background absorption a mixture of 100 μl of the Amplex solution and 100 μl of the reaction buffer was measured as a “blank”.
The samples were incubated at room temperature in the dark for 1 hour, and then the extinction at 535 nm determined in a Softmax Microplate photometer (Molecular Device).

In assay [2] the target is T1, human serotonin re-uptake transporter (hSERT). Kind of assay: Labeled citalopram displacement from hSERT containing membranes (SPA). The following applies: hSERT containing membranes; Ki from IC50 by Cheng-Prusoff; 3.3 nM (3H) citalopram; read-out: Inhibition constant Ki for tritiated citalopram displacement. It counts as binding. The method, then: Membranes containing hSERT were prepared from the above cell line according to Galli et al, Journal of Experimental Biology 1995, 198, 2197-2212. 3 μg of membrane protein and 0.8 mg of wheat germ aglutinin coated SPA® (scintillation proximity assay) beads (Amersham Biosciences GE Healthcare, Slough, UK) per data point were mixed with radio-labeled (3H) citalopram (Amersham Biosciences GE Healthcare, Slough, UK) until a final concentration of 3.3 nM in 50 mM Tris-HCl, 300 mM NaCl (pH 7.4). After incubation for 18 hours at room temperature, the bound citalopram was quantified by liquid scintillation counting.
as §1

T1 sequence (P31645 whole entry): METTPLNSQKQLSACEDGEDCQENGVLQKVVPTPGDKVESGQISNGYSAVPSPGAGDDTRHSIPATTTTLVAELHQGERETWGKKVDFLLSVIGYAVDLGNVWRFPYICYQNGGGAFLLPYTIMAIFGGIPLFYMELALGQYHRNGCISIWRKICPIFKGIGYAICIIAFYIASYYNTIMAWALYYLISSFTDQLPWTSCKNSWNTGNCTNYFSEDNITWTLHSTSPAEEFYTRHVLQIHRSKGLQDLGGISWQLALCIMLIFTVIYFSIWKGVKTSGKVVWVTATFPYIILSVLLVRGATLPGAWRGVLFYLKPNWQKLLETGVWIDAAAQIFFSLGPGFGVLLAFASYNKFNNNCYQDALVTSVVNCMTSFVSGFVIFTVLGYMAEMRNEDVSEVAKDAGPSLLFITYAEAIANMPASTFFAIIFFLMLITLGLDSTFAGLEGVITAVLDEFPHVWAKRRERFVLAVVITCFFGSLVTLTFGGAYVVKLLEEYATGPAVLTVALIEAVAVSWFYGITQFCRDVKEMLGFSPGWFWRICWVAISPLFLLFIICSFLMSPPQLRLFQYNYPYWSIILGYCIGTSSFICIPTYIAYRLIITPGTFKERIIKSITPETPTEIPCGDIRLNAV

As to `C=C(C)[C@H]1COc2cc3oc(=O)ccc3cc2O1` (racemic) [Obliquin, obliquin], the results for the Ki in assay [1] and in assay [2] were 4.9 µM and 6.1 µM, respectively. Moreover, on MAO-B (compared with MAO-A), the “MAO inhibition specificity MAO-B versus MAO-A” value is “higher specificity for MAO-B than for MAO-A”. In addition, the inhibition at 0.1 µM against MAO-B (obliquin 1 x 10^−7 M, substrate benzylamine) amounted to 8.3%. The molecule also had an inhibition at 1 µM against MAO-B (obliquin 10 x 10^−7 M, substrate benzylamine) of 33.3%. Besides, the inhibition at 10 µM on MAO-B (obliquin 100 x 10^−7 M, substrate benzylamine) stood at 76.9%. On MAO-B (obliquin 1000 x 10^−7 M, substrate benzylamine), the inhibition at 100 µM is 91.5%.
